One block for each molecule: values may come before it. The source made the active and inactive calls.
What was measured:
Vero = assay: viability of Vero cells under compound – cytotoxicity control for flavivirus capping enzyme inhibitors (AID 588742); assay type: functional; conditions: Chlorocebus sabaeus
[1] = target: T1, Polyadenylate-binding protein 1 (Homo sapiens, UniProt P11940); assay: MLLE binding blockers, Cy5 peptide tracer – biochemical, fluorescence polarization, Cy5-PAM2 peptide, secondary, miRNA deadenylation inhibitor project, dose response (AID 602260); assay type: functional; conditions: read-out: IC50_Mean
T1 sequence (P11940 whole entry, the tested form may be a part): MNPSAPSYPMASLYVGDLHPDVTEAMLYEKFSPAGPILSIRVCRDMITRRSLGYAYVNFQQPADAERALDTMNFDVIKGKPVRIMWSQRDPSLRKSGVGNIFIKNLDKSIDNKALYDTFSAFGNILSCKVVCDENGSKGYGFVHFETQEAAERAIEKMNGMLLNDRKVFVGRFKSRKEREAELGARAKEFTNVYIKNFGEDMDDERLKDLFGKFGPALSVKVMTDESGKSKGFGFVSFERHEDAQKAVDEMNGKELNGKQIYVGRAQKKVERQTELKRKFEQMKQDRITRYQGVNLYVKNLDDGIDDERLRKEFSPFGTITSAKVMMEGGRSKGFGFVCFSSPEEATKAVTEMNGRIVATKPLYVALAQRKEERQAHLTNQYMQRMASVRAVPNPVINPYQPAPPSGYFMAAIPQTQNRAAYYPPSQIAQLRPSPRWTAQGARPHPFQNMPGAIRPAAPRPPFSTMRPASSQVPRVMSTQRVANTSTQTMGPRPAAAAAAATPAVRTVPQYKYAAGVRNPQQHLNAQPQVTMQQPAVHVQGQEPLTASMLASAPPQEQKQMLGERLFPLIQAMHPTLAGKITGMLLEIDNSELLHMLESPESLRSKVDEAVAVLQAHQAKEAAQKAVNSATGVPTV

[2] = target: T1, Polyadenylate-binding protein 1; assay: MLLE domain peptide-binding blockers, IC50 – biochemical, fluorescence polarization, FITC-PAM2 peptide, dose response (AID 602259); assay type: functional; conditions: read-out: IC50_Mean
Protein Wnt-3a = Protein Wnt-3a (Mus musculus, UniProt P27467); assay: antagonism of Wnt3a pathway luciferase reporter – Wnt-LIGHT cells, luminescence, selectivity assay for Gli-SUFU antagonist project, dose response (AID 651570); assay type: functional; conditions: read-out: IC50_Mean;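 further: Wnt-LIGHT reporter cells stimulated with conditioned medium from Wnt3a-producing cells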
Sequence of Protein Wnt-3a (P27467 whole entry): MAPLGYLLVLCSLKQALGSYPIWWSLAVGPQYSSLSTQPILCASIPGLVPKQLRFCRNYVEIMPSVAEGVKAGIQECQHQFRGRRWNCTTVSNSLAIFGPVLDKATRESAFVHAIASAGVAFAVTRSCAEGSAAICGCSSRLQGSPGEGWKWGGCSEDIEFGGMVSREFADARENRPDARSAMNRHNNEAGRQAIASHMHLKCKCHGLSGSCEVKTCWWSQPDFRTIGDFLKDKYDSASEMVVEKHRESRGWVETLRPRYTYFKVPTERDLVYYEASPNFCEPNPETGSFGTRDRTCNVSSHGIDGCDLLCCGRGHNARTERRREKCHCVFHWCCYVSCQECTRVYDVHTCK

[3] = fluconazole-exposed Candida albicans growth modulators – fluorescence, retest, confirmation (AID 2467); assay type: functional, cell-based
[4] = target: ATP-dependent molecular chaperone HSP82 (Candida albicans (strain WO-1) (Yeast), UniProt C4YTQ8); assay: steroid-induced GRE reporter decrease in yeast – S. cerevisiae, luminescence, Hsp90 inhibitor project, dose response (AID 2400); assay type: functional, cell-based;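 further: beta-galactosidase luminescence from glucocorticoid response element reporter as proxy for Hsp90 function; inhibitor potency where signal loss means Hsp90 inhibition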
Sequence of ATP-dependent molecular chaperone HSP82 (C4YTQ8 whole entry): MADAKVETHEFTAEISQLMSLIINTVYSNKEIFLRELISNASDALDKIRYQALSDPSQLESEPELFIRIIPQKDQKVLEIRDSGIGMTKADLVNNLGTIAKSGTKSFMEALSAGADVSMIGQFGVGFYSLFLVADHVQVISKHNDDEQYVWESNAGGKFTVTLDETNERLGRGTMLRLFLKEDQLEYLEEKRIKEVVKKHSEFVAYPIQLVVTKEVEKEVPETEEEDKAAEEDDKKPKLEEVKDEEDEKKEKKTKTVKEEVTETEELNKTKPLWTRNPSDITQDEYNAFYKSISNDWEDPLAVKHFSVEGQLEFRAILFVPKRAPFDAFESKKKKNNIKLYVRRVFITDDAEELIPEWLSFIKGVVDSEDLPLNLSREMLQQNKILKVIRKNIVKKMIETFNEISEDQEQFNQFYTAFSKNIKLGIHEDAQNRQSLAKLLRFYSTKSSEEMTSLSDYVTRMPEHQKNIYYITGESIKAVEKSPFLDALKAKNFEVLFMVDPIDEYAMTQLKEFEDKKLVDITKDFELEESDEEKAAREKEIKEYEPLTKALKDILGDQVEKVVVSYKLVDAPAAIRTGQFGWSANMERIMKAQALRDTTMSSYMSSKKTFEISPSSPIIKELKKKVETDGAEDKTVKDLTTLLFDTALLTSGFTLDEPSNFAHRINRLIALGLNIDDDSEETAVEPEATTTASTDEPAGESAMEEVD

[5] = target: T2, Serine/threonine-protein phosphatase (Candida dubliniensis (strain CD36 / CBS 7987 / NCPF 3949 / NRRLY-17841) (Yeast), UniProt B9W6M3); assay: blockers of CaCl2-induced CDRE-lacZ signaling – S. cerevisiae, luminescence, secondary, dose response (AID 2388); assay type: functional, cell-based;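 further: yeast reporter cells carrying a calcineurin-responsive lacZ construct stimulated with calcium chloride; luminescent beta-galactosidase reporter signal in whole cells rather than isolated phosphatase activity; potency for inhibition where a drop in reporter signal means calcineurin blockade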
T2 sequence (B9W6M3 whole entry): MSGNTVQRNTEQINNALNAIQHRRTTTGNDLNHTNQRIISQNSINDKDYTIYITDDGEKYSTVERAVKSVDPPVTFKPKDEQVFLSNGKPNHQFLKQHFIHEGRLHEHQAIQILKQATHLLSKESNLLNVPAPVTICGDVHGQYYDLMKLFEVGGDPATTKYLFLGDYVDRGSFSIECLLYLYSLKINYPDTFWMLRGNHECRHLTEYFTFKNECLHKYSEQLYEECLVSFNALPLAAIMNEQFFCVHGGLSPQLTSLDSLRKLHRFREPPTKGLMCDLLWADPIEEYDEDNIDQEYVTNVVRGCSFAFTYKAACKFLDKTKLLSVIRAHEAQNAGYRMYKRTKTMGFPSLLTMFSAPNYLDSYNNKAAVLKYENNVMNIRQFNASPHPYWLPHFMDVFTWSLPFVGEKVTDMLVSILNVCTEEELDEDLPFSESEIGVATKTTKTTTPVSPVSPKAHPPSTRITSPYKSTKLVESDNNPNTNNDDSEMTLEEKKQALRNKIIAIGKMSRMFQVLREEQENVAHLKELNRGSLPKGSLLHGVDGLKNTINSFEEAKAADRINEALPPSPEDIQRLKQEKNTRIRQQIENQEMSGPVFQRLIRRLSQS

[6] = NIH-3T3 fibroblast cytotoxicity, dose response, cytotoxicity control, cell-based, fluorescence, Alamar Blue, secondary assay (AID 2327); assay type: functional;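 further: NIH-3T3 mouse fibroblasts cultured with fluconazole at 8 µg/mL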
[7] = target: T3, Rac GTPase-activating protein 1 (Homo sapiens, UniProt Q9H0H5); assay: blockers of MgcRacGAP-driven Rac1 GTP hydrolysis – biochemical, ADP Hunter fluorescence, primary and confirmatory, confirmation (AID 624330); assay type: functional
T3 sequence (Q9H0H5 whole entry): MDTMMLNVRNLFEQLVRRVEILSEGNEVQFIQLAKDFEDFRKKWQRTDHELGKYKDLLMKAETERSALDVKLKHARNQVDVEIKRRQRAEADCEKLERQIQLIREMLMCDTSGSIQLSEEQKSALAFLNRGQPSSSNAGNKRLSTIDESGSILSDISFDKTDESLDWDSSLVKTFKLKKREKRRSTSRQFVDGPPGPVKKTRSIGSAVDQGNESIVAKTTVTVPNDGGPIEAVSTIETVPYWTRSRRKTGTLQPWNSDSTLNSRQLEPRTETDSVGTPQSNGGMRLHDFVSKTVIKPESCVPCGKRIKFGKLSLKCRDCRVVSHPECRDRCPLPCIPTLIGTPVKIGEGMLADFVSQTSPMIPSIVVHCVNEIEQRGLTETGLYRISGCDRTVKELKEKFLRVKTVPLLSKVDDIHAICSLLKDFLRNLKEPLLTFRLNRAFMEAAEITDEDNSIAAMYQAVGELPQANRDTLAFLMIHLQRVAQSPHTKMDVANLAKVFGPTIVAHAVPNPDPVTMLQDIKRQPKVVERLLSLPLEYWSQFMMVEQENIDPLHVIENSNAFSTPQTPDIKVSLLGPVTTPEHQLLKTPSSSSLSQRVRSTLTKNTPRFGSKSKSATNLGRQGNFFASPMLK

[8] = target: Dual specificity tyrosine-phosphorylation-regulated kinase 1A (Rattus norvegicus, UniProt Q63470); assay type: biochemical, Homo sapiens
[9] = NIH3T3 cell viability loss – ATP luminescence, mouse fibroblasts, counter-screen, dose response (AID 2010); assay type: functional, cell-based;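 further: cells exposed to compound for about 90 hours before reading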
[10] = reduction of Shn3 3'UTR-driven luciferase in osteoblasts – cell-based, Clone20 osteoblasts, firefly luciferase, cherry-picked, dose response (AID 624132); assay type: functional;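 further: firefly luciferase luminescence from reporter carrying the Shn3 3'UTR in osteoblasts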
[11] = Luminescence Cell-Based Dose Retest to Confirm Inhibitors of Cancer Stem Cells. [Related pubchem assays (depositor defined):AID2717, AID2721]; assay type: functional; conditions: Homo sapiens
[12] = Trypanosoma cruzi growth suppression in host cells – NIH3T3 host cells, beta-gal luminescence, confirmation (AID 2044); assay type: functional, cell-based;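 further: intracellular parasites grown in NIH/3T3 mouse fibroblasts as host cells; luminescent beta-galactosidase reporter signal from transgenic T. cruzi replicating inside host cells; inhibitors lower the luminescence signal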
[13] = non-specific 3'UTR reporter inhibition in Clone20-Shn3RL – cell-based, Renilla luciferase, cherry-picked, counter-screen for Shn3 inhibitor project, dose response (AID 624133); assay type: functional
[14] = target: T4, Microphthalmia-associated transcription factor (Homo sapiens, UniProt O75030); assay: reducers of TRPM1 reporter luminescence, concentration series – cell-based, SK-MEL-5, cherry-picked, set 3, MITF inhibitor project, dose response (AID 493073); assay type: functional;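 further: SK-MEL-5 melanoma cells with luciferase driven by the MITF target TRPM1 promoter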
T4 sequence (O75030 whole entry): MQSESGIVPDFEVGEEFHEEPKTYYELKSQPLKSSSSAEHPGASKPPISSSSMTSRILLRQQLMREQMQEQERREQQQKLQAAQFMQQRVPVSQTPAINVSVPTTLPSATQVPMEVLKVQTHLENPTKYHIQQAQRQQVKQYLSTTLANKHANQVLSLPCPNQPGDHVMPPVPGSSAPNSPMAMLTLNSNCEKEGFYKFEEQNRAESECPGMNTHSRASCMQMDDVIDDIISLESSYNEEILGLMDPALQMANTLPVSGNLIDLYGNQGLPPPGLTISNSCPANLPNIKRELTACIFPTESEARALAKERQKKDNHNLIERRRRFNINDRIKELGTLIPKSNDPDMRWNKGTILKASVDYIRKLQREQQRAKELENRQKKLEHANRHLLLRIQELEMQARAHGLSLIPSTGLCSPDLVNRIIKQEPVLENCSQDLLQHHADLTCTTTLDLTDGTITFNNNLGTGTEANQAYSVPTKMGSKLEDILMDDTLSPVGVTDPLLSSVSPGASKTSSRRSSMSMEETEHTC

A-375 = assay: MITF: Counter assay: A375 proliferation Measured in Cell-Based System Using Plate Reader - 2084-03_Inhibitor_Dose_DryPowder_Activity. [Related pubchem assays (depositor defined):AID488944]; assay type: functional; conditions: Homo sapiens
INS1 = assay: INS-1E survival protection against cytokine death – cell-based, luminescence, retest, dose response (AID 449756); assay type: functional; conditions: Rattus norvegicus;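 further: cell death triggered by IL-1 beta plus TNF-alpha plus IFN-gamma mixture; protective hits raise ATP signal compared with cytokine alone wells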
[15] = loss of viability in HepG2 cells – cell-based, CellTiter-Glo, cherry-picked, cytotoxicity control for Shn3 inhibitor project, dose response (AID 624134); assay type: functional
Hexokinase HKDC1 = target: T5, Hexokinase HKDC1 (Homo sapiens, UniProt Q2TB90); assay: SAR analysis of small molecule inhibitors of hexokinase domain containing I (HKDC1). [Related pubchem assays (depositor defined):AID493160, AID493190]; assay type: functional
T5 sequence (Q2TB90 whole entry): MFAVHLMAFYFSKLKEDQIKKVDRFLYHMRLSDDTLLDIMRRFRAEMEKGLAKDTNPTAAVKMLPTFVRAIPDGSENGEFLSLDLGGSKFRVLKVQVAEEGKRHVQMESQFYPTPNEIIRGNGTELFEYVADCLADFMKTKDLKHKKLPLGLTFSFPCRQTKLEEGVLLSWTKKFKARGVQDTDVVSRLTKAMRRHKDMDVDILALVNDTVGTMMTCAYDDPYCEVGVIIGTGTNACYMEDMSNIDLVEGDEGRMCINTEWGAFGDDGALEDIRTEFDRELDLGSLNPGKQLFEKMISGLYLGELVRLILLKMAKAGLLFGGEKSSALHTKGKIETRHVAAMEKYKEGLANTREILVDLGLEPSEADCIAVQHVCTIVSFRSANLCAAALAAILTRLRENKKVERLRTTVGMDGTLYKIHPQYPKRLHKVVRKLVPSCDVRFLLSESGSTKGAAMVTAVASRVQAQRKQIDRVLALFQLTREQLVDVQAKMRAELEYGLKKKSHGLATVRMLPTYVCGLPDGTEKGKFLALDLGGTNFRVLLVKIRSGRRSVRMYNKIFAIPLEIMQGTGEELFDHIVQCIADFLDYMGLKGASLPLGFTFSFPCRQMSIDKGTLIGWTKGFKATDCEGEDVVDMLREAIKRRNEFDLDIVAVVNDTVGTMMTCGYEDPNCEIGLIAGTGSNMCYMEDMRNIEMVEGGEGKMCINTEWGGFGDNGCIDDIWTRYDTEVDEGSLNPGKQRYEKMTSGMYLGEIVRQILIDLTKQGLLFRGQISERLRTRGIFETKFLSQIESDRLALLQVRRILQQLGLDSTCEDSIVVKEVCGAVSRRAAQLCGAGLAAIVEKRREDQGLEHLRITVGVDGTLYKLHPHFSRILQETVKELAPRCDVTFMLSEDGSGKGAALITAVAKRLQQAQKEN

Hexokinase-1 = target: T6, Hexokinase-1 (Homo sapiens, UniProt P19367); assay: SAR analysis of small molecule inhibitors of hexokinase domain containing I (HKDC1) in the hexokinase 1 selectivity assay. [Related pubchem assays (depositor defined):AID493160, AID493190]; assay type: functional
T6 sequence (P19367 whole entry): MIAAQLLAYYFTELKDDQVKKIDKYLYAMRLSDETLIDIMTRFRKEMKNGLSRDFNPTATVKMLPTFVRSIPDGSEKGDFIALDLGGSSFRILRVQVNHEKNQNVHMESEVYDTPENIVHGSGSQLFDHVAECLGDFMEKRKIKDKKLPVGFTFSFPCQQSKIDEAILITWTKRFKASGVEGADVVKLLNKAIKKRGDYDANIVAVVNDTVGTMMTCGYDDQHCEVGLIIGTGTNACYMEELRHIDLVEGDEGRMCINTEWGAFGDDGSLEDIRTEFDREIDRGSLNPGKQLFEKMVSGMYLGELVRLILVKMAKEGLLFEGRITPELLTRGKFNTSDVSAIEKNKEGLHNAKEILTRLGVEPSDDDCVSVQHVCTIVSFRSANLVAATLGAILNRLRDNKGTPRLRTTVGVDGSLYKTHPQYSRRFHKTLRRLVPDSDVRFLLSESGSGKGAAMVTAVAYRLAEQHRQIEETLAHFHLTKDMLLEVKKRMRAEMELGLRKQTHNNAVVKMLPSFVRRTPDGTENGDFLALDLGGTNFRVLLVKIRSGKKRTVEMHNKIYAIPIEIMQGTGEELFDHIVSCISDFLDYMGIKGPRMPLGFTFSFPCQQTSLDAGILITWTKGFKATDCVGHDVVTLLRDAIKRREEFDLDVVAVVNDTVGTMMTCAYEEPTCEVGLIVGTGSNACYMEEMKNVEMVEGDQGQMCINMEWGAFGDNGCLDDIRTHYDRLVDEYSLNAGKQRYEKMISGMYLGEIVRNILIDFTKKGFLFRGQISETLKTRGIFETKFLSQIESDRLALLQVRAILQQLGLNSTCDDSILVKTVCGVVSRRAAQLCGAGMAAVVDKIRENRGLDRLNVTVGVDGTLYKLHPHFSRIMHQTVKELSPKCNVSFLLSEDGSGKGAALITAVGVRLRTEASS

Large T antigen = Large T antigen (Simian virus 40, UniProt P03070); assay type: functional, Betapolyomavirus macacae;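 further: Confirmatory-stage PubChem screen for compounds that inhibit SV40 T antigen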
Sequence of Large T antigen (P03070 whole entry): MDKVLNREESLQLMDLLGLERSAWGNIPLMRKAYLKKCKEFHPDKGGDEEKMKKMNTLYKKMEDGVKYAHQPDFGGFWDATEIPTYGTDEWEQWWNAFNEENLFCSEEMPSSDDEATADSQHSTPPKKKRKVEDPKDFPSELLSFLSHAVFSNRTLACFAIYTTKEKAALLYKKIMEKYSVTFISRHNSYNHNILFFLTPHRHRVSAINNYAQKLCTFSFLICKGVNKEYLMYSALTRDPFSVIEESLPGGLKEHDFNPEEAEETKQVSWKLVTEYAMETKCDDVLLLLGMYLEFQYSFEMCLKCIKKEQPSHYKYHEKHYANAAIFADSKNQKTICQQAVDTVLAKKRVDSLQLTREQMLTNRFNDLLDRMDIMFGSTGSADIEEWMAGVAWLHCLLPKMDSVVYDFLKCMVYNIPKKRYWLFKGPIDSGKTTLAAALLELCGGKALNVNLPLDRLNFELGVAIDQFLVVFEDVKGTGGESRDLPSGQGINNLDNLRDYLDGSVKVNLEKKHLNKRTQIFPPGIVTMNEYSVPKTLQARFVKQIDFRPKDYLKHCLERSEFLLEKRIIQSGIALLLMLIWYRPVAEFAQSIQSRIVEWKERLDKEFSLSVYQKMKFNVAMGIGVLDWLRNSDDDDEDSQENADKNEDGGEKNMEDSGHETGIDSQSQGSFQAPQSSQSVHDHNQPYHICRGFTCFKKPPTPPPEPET

Compound: COC/C=C/C1=CC2=CC(=O)C(C)(OC(=O)c3cnc4ccccc4n3)C(=O)C2=CN1Cc1ccc(OC)cc1 (configuration not stated)
- CC50 (Vero): 39.2 µM (active)

Compound: CCc1ccccc1N=C(S)N=Nc1c(O)n(C)c2ccc(S(=O)(=O)N3CCOCC3)cc12
- IC50 (Protein Wnt-3a): 13.3 µM (active)
- EC50 [3]: > 38 µM (not active)
- EC50 [4]: 40.9 µM (active)
- EC50 [5]: > 180 µM (inactive)
- EC50 [6]: > 150 µM (inconclusive)

Compound: Nc1cc2c([N+](=O)[O-])cccc2o1
- IC50 [7]: 128 µM (active)
- AC50 [8]: 16.6 µM (active)

Compound: O=S(=O)(c1ccc(Cl)cc1)N1CCN(Cc2ccc(O)c3ncccc23)CC1
- EC50 [9]: > 30 µM (not active)
- AC50 [10]: 3.01 µM (active)
- EC50 [3]: 2.53 µM (active)
- AC50 [11]: 5.13 µM (active)
- EC50 [12]: 1.37 µM (active)
- AC50 [13]: 16.4 µM (active)
- AC50 [14]: 4.37 µM (active)
- AC50 (A-375): 40.6 µM (active)
- AC50 (INS1): 2.42 µM (active)
- AC50 [15]: 43.9 µM (active)
- EC50 [6]: 16.6 µM (active)

Compound: O=C(O)/C=C/c1ccc(O)cc1 [COUMARIC ACID]
- IC50 (Large T antigen): 18.9 µM (active)
- AC50 [8]: 10.9 µM (active)

More lines, now with the values ahead:

- IC50 [1]: > 66 µM (inactive)
- IC50 [2]: > 66 µM (inactive)
Compound: O=C(Nc1cccs1)Nc1c(F)c(F)c(F)c(F)c1F

- IC50 (Hexokinase HKDC1): > 80 µM (inactive)
- IC50 (Hexokinase-1): > 80 µM (inactive)
Compound: O=C(Nc1cccc(C(=O)Nc2cccc(C(F)(F)F)c2)c1)c1ccncc1

- IC50 (Hexokinase HKDC1): > 80 µM (inactive)
- IC50 (Hexokinase-1): > 80 µM (inactive)
Compound: COc1ccccc1/C=C/c1nc2ccccc2c(=O)n1Cc1ccccc1

- IC50 (Hexokinase HKDC1): > 80 µM (inactive)
- IC50 (Hexokinase-1): > 80 µM (inactive)
Compound: O=C(Nc1nnc(SCc2ccc(Cl)cc2)s1)c1ccc2ncsc2c1

- IC50 [1]: > 66 µM (inactive)
- IC50 [2]: > 66 µM (inactive)
Compound: Cc1ccc(NC(=O)CSC(N)=O)cc1Cl

- AC50 [8]: 12.7 µM (active)
Compound: O=c1cc(-c2ccc(O)c(O)c2)oc2cc(O[C@@H]3O[C@H](CO)[C@@H](O)[C@H](O)[C@H]3O)cc(O)c12 [GALUTEOLIN]
